# Results published in patent US20230321187A1, “OCTOPUS-DERIVED PEPTIDE OCTOPROMYCIN HAVING ANTIBACTERIAL AND ANTI-BIOFILM ACTIVITY AGAINST ACINETOBACTER BAUMANNII” (priority 2020, published 2023).
# How the values were obtained:
# A. baumannii [1] = test: Time-kill kinetics (OD 595 nm); assay type: cell-based, Acinetobacter baumannii; details: 10 μg/mL
# Protocol: The MIC and MBC levels of octopromycin in A. baumannii were determined using media dilution tests and subcultures, respectively, according to the guidelines of the Clinical and Laboratory Standards Institute (CLSI, 2008 M27-A3). Several concentrations of octopromycin (0, 5, 10, 25, 50, 100, and 200 μg/mL) were tested as standard antibiotics (positive control) together with chloramphenicol (10 μg/mL, Sigma-Aldrich, USA) acting on A. baumannii growth and the MBC of chloramphenicol was confirmed according to the same procedure. The MIC was determined as the minimum concentration required to inhibit visual growth of A. baumannii. […] For analysis of time-kill kinetics, A. baumannii was cultured with octopromycin at various concentrations (0, 25, 50, 100, and 200 μg/mL) in the TSA medium at 25° C., and at different time intervals (0, 3, 6, 9, 12, 18, and 21 h), the absorbance was measured at 595 nm using a microplate reader (Bio-Rad, Saint Louis, USA) to confirm an inhibitory effect after culturing.
# A. baumannii [2] = test: Propidium iodide (PI) uptake / FDA staining membrane permeability assay (CLSM); assay type: cell-based, Acinetobacter baumannii; details: 10 μg/mL, positive control
# Protocol: Propidium iodide (PI) uptake assay was performed to evaluate an effect of octopromycin on association with the membrane permeability and apoptosis of A. baumannii. The PI was a red fluorescent nuclear and chromosome counter dye that indicated changes in cell membrane permeability, and was used to detect the presence of dead cells and simultaneously observe live cells by observing green fluorescence (FDA). A. baumannii treated with octopromycin at MIC; 50 μg/mL and MBC; 200 μg/mL levels and control cell suspensions were centrifuged (5000 rpm for 2 minutes), washed with PBS and the pellets were suspended in PBS. Subsequently, the cells were cultured with 20 μg/mL of PI (Sigma Aldrich, USA) and 8 μg/mL of FDA (Sigma Aldrich, USA) at 25° C. for 30 minutes in the dark, and finally, the remaining dye was washed with PBS. Finally, a 5 μL drop of each suspension was placed on a cover slip and fluorescence images were observed using a CLSM integrated with a scan head on an Axiovert 200M inverted microscope (Carl Zeiss, Germany).
# A. baumannii biofilm = test: microbe, parasite or virus in culture; assay type: cell-based; details: Acinetobacter baumannii; 10 μg/mL, positive control; read-out: biofilm formation inhibition
# Protocol: In order to investigate an effect of octopromycin on the biofilm of A. baumannii, analysis for biofilm formation inhibition and eradication was performed.
# To examine the inhibitory effect of an octopromycin peptide on biofilm formation, A. baumannii was cultured in TSB. The bacteria were diluted to 5×10^5 CFU/mL in a TSB medium, then 97.5 mL and 90 mL of bacterial suspensions were mixed with 2.5 mL and 10 mL of peptides, respectively, to reach 50 μg/mL (MIC) and 200 μg/mL (MBC), and cultured on a 96-well plate for 24 hours. Then, the supernatant was carefully removed, and the formed biofilm was fixed with 100% methanol for 10 minutes. After methanol was removed, the biofilm was stained with 0.1% crystal violet for 30 minutes. Subsequently, the plate was washed 3 times with distilled water. Finally, the biofilm was completely dissolved in 95% ethanol and absorbance was measured at 495 nm using a microplate reader (Bio-Rad, USA).
# mouse red blood cells = assay type: cell-based
# Protocol: Systemic application of octopromycin as an antibiotic requires low toxicity to red blood cells. Accordingly, an in vitro hemolysis assay was performed using mouse red blood cells […].
# The hemolytic activity of the peptide was evaluated using mouse red blood cells (RBC). The RBCs were washed 3 times with phosphate buffered saline (PBS) until the supernatant was clear. Different concentrations of octopromycin (0, 25, 50, 100, 200, 300 μg/mL) were added to 1.5 ml Eppendorf tubes. The RBCs were added at a final concentration of 8% (v/v) in a total volume of 500 μL. The RBCs were incubated for 1 hour, and then centrifuged for 10 minutes and the absorbance of the supernatant was measured at 414 nm.
# Percent hemolysis was calculated using Equation:
# Hemolysis (%)=(A414 of Peptide−A414 of PBS)/(A414 of Triton−A414 of PBS)×100
Compound,growth inhibition (time-kill kinetics) (A. baumannii [1]),membrane permeability (PI/FDA staining) (A. baumannii [2]),inhibition at 10 µg/mL (A. baumannii biofilm) [%],hemolysis (mouse red blood cells) [%]
"O=C(N[C@H](CO)[C@H](O)c1ccc([N+](=O)[O-])cc1)C(Cl)Cl [chloramphenicol, reference compound]",growth inhibition was similar to that of 50 μg/mL of octopromycin,high membrane permeability,85.9,–
Triton X-100,–,–,–,100
